Read-outs that look alike come from different tables or passages of the source.
Key:
[1] = molecular target: T1, EGFR wild type (Homo sapiens, UniProt P00533); experiment: Inhibition of EGFR wild type biochemical enzymatic activity (HTRF); details: 1 mM ATP
T1 construct: purchased Carna Bio
Summary of the method: (§1)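 Using a high ATP level (1 mM), wild-type and mutant EGFR enzymes were incubated 1 h at room temperature with inhibitor and 1 μM biotinylated TK substrate. Phosphorylation was quantified as the 665/615 nm HTRF ratio. IC50s were derived by logistic fitting.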

[2] = molecular target: T2, EGFR L858R (Homo sapiens, UniProt P00533, L858R); experiment: Inhibition of EGFR L858R biochemical enzymatic activity (HTRF); details: 1 mM ATP
T2 construct: purchased Carna Bio
Summary of the method: as §1

[3] = molecular target: T3, EGFR L858R/T790M (Homo sapiens, UniProt P00533, L858R/T790M); experiment: Inhibition of EGFR L858R/T790M biochemical enzymatic activity (HTRF); details: 1 mM ATP
T3 construct: purchased Carna Bio
T3 sequence (P00533 25-1210 T790M/L858R): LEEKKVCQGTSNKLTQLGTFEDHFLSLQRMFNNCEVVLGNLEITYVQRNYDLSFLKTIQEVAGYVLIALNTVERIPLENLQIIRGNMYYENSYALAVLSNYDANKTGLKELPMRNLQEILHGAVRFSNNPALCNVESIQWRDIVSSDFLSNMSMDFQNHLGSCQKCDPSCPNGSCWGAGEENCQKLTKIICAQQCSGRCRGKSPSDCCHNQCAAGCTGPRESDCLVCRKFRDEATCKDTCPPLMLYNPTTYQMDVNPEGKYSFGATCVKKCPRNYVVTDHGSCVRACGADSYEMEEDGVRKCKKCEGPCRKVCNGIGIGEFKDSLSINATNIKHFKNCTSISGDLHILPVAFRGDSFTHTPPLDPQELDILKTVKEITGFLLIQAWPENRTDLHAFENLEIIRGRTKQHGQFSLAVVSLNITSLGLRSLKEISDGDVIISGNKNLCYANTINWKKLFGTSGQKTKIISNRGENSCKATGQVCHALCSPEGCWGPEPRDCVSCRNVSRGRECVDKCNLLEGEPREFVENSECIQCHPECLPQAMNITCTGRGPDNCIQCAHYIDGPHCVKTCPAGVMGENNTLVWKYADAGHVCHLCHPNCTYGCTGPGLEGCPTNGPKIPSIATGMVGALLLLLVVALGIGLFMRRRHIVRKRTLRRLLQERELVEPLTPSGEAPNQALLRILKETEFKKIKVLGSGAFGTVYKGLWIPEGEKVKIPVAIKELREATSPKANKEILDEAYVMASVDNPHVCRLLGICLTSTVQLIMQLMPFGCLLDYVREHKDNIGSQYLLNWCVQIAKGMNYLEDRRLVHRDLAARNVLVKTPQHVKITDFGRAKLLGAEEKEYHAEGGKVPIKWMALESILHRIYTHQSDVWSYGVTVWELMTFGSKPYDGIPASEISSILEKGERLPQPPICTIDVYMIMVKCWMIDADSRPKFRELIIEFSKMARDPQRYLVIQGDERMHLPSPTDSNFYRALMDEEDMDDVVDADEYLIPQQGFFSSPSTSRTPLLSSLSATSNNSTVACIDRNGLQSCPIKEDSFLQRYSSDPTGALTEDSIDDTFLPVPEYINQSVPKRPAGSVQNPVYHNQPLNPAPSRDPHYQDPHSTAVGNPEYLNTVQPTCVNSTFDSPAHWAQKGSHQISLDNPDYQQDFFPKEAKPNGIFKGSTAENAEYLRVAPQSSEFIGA
Summary of the method: as §1

[4] = molecular target: T4, EGFR Exon19Del (Homo sapiens, UniProt P00533, DEL746-750); experiment: Inhibition of EGFR Exon19Del biochemical enzymatic activity (HTRF); details: read-out: IC50 @Del19
T4 construct: purchased Carna Bio
Summary of the method: as §1

[5] = molecular target: T5, EGFR Exon19Del/T790M (Homo sapiens, UniProt P00533, DEL746-750/T790M); experiment: Inhibition of EGFR Exon19Del/T790M biochemical enzymatic activity (HTRF); details: 1 mM ATP
T5 construct: purchased Carna Bio
T5 sequence (P00533 with tags, fused parts or gaps DEL746-750/T790M limits assumed): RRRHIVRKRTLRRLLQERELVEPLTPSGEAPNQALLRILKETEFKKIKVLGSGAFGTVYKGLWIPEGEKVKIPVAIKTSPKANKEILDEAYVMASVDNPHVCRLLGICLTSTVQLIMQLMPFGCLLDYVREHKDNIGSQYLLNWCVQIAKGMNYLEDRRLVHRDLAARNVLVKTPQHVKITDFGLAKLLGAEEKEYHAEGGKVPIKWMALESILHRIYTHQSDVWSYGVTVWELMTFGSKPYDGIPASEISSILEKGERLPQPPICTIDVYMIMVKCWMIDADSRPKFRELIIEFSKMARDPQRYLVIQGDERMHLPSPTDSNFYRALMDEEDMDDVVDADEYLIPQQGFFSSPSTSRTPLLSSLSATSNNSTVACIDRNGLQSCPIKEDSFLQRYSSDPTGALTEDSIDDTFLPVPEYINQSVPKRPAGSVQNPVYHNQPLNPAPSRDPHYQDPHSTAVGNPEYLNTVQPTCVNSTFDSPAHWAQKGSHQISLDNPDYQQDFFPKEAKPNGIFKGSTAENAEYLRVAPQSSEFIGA
Summary of the method: as §1

[6] = molecular target: T6, EGFR[T790M/C797S/L858R] (Homo sapiens, UniProt P00533, C797S/L858R/T790M); experiment: Inhibition of EGFR[T790M/C797S/L858R] biochemical enzymatic activity (HTRF); details: 1 mM ATP
T6 construct: purchased Carna Bio
Summary of the method: as §1

[7] = molecular target: T7, EGFR[T790M/C797S/d746-750] (Homo sapiens, UniProt P00533, C797S/DEL746-750/T790M); experiment: Inhibition of EGFR[T790M/C797S/d746-750] biochemical enzymatic activity (HTRF)
T7 construct: purchased Carna Bio
T7 sequence (P00533 with tags, fused parts or gaps DEL746-750/T790M/C797S limits assumed): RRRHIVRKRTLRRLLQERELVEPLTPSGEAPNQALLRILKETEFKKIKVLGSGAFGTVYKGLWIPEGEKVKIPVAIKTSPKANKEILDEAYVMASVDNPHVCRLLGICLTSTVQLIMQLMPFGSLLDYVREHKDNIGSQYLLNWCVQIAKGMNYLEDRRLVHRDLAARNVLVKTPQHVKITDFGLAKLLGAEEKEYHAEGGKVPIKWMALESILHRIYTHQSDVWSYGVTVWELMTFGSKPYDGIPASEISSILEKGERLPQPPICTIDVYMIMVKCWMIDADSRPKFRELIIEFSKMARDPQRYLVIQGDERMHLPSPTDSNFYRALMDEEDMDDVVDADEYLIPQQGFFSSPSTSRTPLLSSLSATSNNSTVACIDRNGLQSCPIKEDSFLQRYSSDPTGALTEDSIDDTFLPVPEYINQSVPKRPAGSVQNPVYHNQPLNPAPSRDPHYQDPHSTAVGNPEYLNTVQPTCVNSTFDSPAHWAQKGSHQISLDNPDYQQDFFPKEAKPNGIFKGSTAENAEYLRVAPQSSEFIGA
Summary of the method: as §1

[8] = molecular target: T8, EGFR (d746-750 C797S) (Homo sapiens, UniProt P00533, C797S/DEL746-750); experiment: Inhibition of EGFR (d746-750 C797S) biochemical enzymatic activity (HTRF); details: 1 mM ATP
T8 construct: purchased signalchem
Summary of the method: as §1

[9] = molecular target: T9, EGFR (C797S L858R) (Homo sapiens, UniProt P00533, C797S/L858R); experiment: Inhibition of EGFR (C797S L858R) biochemical enzymatic activity (HTRF); details: 1 mM ATP
T9 construct: purchased signalchem
T9 sequence (P00533 25-1210 C797S/L858R): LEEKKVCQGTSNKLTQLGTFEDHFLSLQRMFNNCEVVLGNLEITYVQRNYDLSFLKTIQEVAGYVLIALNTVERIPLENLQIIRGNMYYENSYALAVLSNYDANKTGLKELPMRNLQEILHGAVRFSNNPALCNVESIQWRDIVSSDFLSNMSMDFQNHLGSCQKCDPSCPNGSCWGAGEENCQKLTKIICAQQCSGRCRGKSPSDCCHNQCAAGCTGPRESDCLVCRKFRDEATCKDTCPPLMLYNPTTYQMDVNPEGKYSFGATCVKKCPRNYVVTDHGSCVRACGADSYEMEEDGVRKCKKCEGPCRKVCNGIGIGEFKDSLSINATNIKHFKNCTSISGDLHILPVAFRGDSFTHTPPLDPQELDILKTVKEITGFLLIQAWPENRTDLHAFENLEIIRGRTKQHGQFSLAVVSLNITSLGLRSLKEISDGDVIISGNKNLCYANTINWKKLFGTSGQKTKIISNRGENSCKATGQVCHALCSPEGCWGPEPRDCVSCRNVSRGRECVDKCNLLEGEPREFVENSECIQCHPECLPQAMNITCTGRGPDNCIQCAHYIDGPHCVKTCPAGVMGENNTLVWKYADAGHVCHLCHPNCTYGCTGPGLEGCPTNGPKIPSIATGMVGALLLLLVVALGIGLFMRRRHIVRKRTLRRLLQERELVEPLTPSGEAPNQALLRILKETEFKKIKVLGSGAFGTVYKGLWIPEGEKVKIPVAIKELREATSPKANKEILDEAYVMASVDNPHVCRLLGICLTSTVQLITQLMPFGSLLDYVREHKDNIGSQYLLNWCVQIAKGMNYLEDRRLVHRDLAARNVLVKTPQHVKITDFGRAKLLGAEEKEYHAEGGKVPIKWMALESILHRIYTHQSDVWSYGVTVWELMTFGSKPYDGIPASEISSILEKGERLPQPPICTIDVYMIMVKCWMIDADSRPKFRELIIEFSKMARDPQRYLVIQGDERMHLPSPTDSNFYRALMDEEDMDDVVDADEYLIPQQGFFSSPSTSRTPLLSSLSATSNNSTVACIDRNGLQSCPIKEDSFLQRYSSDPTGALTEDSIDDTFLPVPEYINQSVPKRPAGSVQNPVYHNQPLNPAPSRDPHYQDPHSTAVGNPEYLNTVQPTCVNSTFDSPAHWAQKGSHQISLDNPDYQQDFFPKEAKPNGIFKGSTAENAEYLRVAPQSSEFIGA
Summary of the method: as §1

[10] = tested on: Ba/F3 cells expressing EGFR mutations; experiment: Cell proliferation assay, Ba/F3 cells expressing EGFR mutations (CellTiter-Glo, 72 hours); assay type: cell-based
Summary of the method: (§2)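 Ba/F3 cells carrying EGFR mutants (5000/well) or PC-9 cells (500/well) in RPMI1640 were dosed with compound series after overnight attachment and grown 72 h. Viability read by CellTiter-Glo, with day-0 counts subtracted; GI50 from curve fits of % proliferation versus DMSO control.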

[11] = tested on: PC-9; experiment: Cell proliferation assay, PC-9 cells (CellTiter-Glo, 72 hours); assay type: cell-based; details: PC9 cells, read-out: GI50 PC9
Summary of the method: as §2

[12] = tested on: A-431; experiment: Cell proliferation assay, A-431 cells (GI50, Table 6); assay type: cell-based; details: Homo sapiens, A-431, A-431 cells
[13] = EGFR wild type, 1 h at room temperature, read-out: IC50 @WT
[14] = 1 h at room temperature, read-out: IC50 @L858R
[15] = EGFR L858R/T790M, 1 h at room temperature, read-out: IC50 @L858R-T790M
[16] = EGFR Exon19Del, 1 mM ATP, 1 h at room temperature
[17] = EGFR Exon19Del/T790M, 1 h at room temperature, read-out: IC50 @Del19-T790M
[18] = EGFR[T790M/C797S/L858R], 1 h at room temperature, read-out: IC50 @T790M- C797S - L858R
[19] = EGFR[T790M/C797S/d746-750], 1 mM ATP, 1 h at room temperature, read-out: IC50 @T790M - C797S - Del19
[20] = EGFR (d746-750 C797S), 1 h at room temperature, read-out: IC50 @Del19-C797S
[21] = EGFR (C797S L858R), 1 h at room temperature, read-out: IC50 @L858-C797S
[22] = BaF3 cells, EGFR DEL19 - C797S, read-out: GI50 DEL19 - C797S/BaF3
[23] = BaF3 cells, EGFR DEL19 - T790-C797S, read-out: GI50 DEL19 - T790-C797S/BaF3
[24] = BaF3 cells, EGFR L858R - C797S, read-out: GI50 L858R - C797S/BaF3
[25] = BaF3 cells, EGFR L858R - T790-C797S, read-out: GI50 L858R - T790-C797S/BaF3
[26] = BaF3 cells, EGFR L858R - T790M, read-out: GI50 L858R - T790M/BaF3
[27] = BaF3 cells, EGFR L858R, read-out: GI50 L858R/BaF3
[28] = EGFR DEL19 - T790M, read-out: GI50 DEL19 - T790M
[29] = Mus musculus, BaF3, 72 h, BaF3 cells, EGFR DEL19 - C797S, read-out: GI50 DEL19 - C797S/BaF3
[30] = Mus musculus, BaF3, 72 h, BaF3 cells, EGFR DEL19 - T790-C797S, read-out: GI50 DEL19 - T790-C797S/BaF3
[31] = Mus musculus, BaF3, 72 h, BaF3 cells, EGFR L858R - C797S, read-out: GI50 L858R - C797S/BaF3
[32] = Mus musculus, BaF3, 72 h, BaF3 cells, EGFR L858R - T790-C797S, read-out: GI50 L858R - T790-C797S/BaF3
[33] = Mus musculus, BaF3, 72 h, BaF3 cells, EGFR L858R - T790M, read-out: GI50 L858R - T790M/BaF3
[34] = Mus musculus, BaF3, 72 h, BaF3 cells, EGFR L858R, read-out: GI50 L858R/BaF3
[35] = Mus musculus, BaF3, 72 h, EGFR DEL19 - T790M, read-out: GI50 DEL19 - T790M

T1 sequence (P00533 25-1210): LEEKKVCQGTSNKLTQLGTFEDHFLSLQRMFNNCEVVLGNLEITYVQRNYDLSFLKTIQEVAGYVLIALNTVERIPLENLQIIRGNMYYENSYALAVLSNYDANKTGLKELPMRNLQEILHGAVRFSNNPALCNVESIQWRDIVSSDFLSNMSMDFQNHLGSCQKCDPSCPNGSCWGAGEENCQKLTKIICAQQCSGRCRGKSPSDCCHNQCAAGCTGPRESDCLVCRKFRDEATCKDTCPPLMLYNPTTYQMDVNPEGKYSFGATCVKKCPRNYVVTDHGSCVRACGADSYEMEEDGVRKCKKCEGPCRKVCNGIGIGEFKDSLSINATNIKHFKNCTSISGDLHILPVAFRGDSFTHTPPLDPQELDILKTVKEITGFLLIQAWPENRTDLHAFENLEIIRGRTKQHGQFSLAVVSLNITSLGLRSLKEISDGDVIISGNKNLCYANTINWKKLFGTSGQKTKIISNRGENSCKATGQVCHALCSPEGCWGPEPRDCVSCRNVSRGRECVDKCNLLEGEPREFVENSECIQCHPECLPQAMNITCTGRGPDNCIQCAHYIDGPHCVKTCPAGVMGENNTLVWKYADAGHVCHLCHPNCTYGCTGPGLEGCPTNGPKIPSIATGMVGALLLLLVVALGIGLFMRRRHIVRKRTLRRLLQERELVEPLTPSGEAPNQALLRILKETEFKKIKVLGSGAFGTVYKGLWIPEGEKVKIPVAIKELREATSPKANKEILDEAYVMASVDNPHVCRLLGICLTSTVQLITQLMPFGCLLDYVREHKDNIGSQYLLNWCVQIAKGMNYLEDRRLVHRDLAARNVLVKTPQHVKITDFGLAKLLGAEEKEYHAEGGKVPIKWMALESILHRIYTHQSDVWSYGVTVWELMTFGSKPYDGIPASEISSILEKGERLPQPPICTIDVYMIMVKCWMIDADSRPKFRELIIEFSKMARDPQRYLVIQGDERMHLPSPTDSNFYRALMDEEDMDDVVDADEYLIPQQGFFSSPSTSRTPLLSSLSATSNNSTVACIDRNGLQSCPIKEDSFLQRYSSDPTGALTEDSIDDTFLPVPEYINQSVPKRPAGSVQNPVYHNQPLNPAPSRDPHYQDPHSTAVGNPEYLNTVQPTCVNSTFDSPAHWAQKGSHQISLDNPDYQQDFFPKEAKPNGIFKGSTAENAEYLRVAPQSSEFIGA

| SMILES | IC50 [1, 13] [nM] | IC50 [2, 14] [nM] | IC50 [3, 15] [nM] | IC50 [4, 16] [nM] | IC50 [5, 17] [nM] | IC50 [6, 18] [nM] | IC50 [7, 19] [nM] | IC50 [8, 20] [nM] | IC50 [9, 21] [nM] | GI50 [10, 22] [nM] | GI50 [10, 23] [nM] | GI50 [12] [nM] | GI50 [10, 29] [nM] | GI50 [10, 30] [nM] | GI50 [10, 31] [nM] | GI50 [10, 32] [nM] | GI50 [10, 33] [nM] | GI50 [10, 34] [nM] | GI50 [10, 35] [nM] | GI50 ([11]; Homo sapiens, PC-9, 72 h) [nM] | other results |
| --- | --- | --- | --- | --- | --- | --- | --- | --- | --- | --- | --- | --- | --- | --- | --- | --- | --- | --- | --- | --- | --- |
| Cc1cc2cc(n1)-c1cnn(C)c1OCCN1CC3CCC(C3)(C1)n1c(nc3ccc(N4CCC5(CCN(C)CC5)C4)cc31)NC2=O (single isomer, unassigned) [Example B51B] | 546 | 21 | 5.9 | 6.1 | 5.6 | 2.9 | 3.4 | 3.5 | 8.4 | 2 | 2 | 3030 | – | – | – | – | – | – | – | – | GI50 [10, 24]: 4 nM; GI50 [10, 25]: 2 nM; GI50 [10, 26]: 2 nM; GI50 [10, 27]: 8 nM; GI50 [10, 28]: 2 nM; GI50 [11]: 8 nM |
| Cc1cc2cc(n1)-c1cnn(C)c1OCCN1CC3CCC(C3)(C1)n1c(nc3ccc(N4CC5CN(C)CC5C4)cc31)NC2=O (single isomer, unassigned) [Example B43B] | 489 | 36 | 4.8 | 6.6 | 5.2 | 2.3 | 3 | 3 | 9 | 2 | 2 | 437 | – | – | – | – | – | – | – | – | GI50 [10, 24]: 7 nM; GI50 [10, 25]: 2 nM; GI50 [10, 26]: 2 nM; GI50 [10, 27]: 12 nM; GI50 [10, 28]: 2 nM; GI50 [11]: 7 nM |
| Cc1cc2cc(n1)-c1cnn(C)c1OCCN(CC(F)F)CCn1c(nc3ccccc31)NC2=O [Example B5] | – | – | – | – | – | – | – | – | – | – | – | 2820 | 62 | 31 | 66 | 9.1 | 7 | 144 | 41 | 115 | IC50 ([1]; EGFR WT, 1 h, room temperature, read-out: IC50 (nM) @WT): > 5000 nM; IC50 ([2]; 1 h, room temperature, read-out: IC50 (nM) @L858R): 440 nM; IC50 ([3]; EGFR L858R-T790M, 1 h, room temperature, read-out: IC50 (nM) @L858R-T790M): 13 nM; IC50 ([4]; EGFR Del19, 1 mM ATP, 1 h, room temperature): 108 nM; IC50 ([5]; EGFR Del19-T790M, 1 h, room temperature, read-out: IC50 (nM) @Del19-T790M): 5.1 nM; IC50 ([6]; EGFR T790M-C797S-L858R, 1 h, room temperature, read-out: IC50 (nM) @T790M- C797S - L858R): 7.1 nM; IC50 ([7]; EGFR T790M-C797S-Del19, 1 mM ATP, 1 h, room temperature, read-out: IC50 (nM) @T790M - C797S - Del19): 4.1 nM; IC50 ([8]; EGFR Del19-C797S, 1 h, room temperature, read-out: IC50 (nM) @Del19-C797S): 48 nM; IC50 ([9]; EGFR L858-C797S, 1 h, room temperature, read-out: IC50 (nM) @L858-C797S): 195 nM |
| Cc1cc2cc(n1)-c1cnn(C)c1OCCCCCn1c(nc3ccc4c(c31)CCN(C1COC1)C4)NC2=O [Example B17, 5,30-Dimethyl-18-(oxetan-3-yl)-7-oxa-4,5,13,18,24,26,31-heptaazahexacyclo[26.3.1.0^{2,6}.0^{13,25}.0^{14,23}.0^{15,20}]dotriaconta-1(31),2(6),3,14,20,22,24,28(32),29-nonaen-27-one] | > 5000 | > 5000 | > 5000 | > 5000 | 128 | 4160 | 51 | 2110 | > 5000 | – | – | 1090 | 26 | 10 | 82 | 6 | 21 | 114 | 8.7 | 71 | – |
| Cc1cc2cc(n1)-c1cnn(C)c1OCCN1CC3CCC(CC3)(C1)n1c(nc3ccc(N4CC5CN(C)CC5C4)cc31)NC2=O (stereo not drawn) [Example B34] | > 5000 | 421 | 16 | 39 | 12 | 8.4 | 5.4 | 20 | 203 | – | – | 4520 | 11 | 4 | 83 | 9 | 17 | 64 | 4 | 86 | – |

From patent US20260365670A1, “EGFR INHIBITORS AND USES THEREOF” (DIZAL (JIANGSU) PHARMACEUTICAL CO., LTD., priority 2022, published 2026)
